From ChEMBL document CHEMBL1141497, “Discovery of novel FMS kinase inhibitors as anti-inflammatory agents” (Bioorg Med Chem Lett, 2008)

Legend:
[1] = target: Macrophage colony-stimulating factor 1 receptor (Homo sapiens, UniProt P07333); assay: biochemical
[2] = Half life in CD1 mouse at 2 mg/kg, iv and 10 mg/kg, po; type: ADME, organism-based; details: in vivo
[3] = Oral bioavailability in CD1 mouse at 10 mg/kg; type: ADME, organism-based; details: in vivo
[4] = Volume of distribution in CD1 mouse at 2 mg/kg, iv and 10 mg/kg, po; type: ADME, organism-based; details: in vivo, read-out: Vdss
[5] = Cmax in CD1 mouse at 2 mg/kg, iv and 10 mg/kg, po; type: ADME, organism-based; details: in vivo
Macrophage = assay: Inhibition of FMS-induced proliferation of bone marrow derived human macrophages; type: functional, cell-based
[6] = target: High affinity nerve growth factor receptor (Homo sapiens, UniProt P04629); assay: Inhibition of TrkA after 27 mins by fluorescence polarization
Mus musculus [7] = species: Mus musculus; assay: Reduction in bone destruction in mouse CIA model BID for 14 days; type: functional; design: scale not given: the % may be the effect or the level left
Mus musculus [8] = assay: Reduction in progression of collagen-induced arthritis scores in mouse CIA model at 5 mg/kg, po bid; type: functional; design: scale not given: the % may be the effect or the level left
Mus musculus [9] = species: Mus musculus; assay: Reduction in pannus formation in mouse CIA model BID for 14 days; type: functional; design: scale not given: the % may be the effect or the level left
Mus musculus [10] = assay: Reduction in progression of collagen-induced arthritis scores in mouse CIA model at 30 mg/kg, po bid; type: functional; design: scale not given: the % may be the effect or the level left
[11] = target: Mast/stem cell growth factor receptor Kit (Homo sapiens, UniProt P10721); assay: Inhibition of Kit after 30 mins by fluorescence polarization
Sequence of Mast/stem cell growth factor receptor Kit (P10721 whole entry): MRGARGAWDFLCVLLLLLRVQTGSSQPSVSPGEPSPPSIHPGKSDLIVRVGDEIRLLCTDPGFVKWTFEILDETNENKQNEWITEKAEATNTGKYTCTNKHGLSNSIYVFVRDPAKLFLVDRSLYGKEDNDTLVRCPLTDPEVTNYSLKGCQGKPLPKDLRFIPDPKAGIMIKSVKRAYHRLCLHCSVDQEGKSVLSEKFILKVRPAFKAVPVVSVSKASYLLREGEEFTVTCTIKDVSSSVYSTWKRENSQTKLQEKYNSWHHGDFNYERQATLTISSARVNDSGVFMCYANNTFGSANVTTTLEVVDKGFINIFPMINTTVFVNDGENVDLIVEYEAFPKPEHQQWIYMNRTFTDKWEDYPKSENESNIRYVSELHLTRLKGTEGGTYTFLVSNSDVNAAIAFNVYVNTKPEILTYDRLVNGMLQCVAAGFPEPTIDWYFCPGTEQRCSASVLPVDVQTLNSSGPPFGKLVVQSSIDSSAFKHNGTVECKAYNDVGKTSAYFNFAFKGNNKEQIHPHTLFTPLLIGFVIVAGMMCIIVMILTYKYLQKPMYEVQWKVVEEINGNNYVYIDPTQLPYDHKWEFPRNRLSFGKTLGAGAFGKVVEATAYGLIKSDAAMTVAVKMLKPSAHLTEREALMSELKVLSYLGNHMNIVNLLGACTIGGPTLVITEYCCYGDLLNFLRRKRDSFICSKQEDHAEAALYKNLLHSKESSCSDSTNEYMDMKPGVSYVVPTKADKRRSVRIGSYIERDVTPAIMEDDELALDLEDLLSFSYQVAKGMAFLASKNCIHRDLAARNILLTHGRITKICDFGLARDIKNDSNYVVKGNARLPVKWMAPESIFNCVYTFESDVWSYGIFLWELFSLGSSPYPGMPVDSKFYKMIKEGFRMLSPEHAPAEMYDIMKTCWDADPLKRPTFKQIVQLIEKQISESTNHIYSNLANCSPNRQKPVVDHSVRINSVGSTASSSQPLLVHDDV

Sequence of Macrophage colony-stimulating factor 1 receptor (P07333 whole entry): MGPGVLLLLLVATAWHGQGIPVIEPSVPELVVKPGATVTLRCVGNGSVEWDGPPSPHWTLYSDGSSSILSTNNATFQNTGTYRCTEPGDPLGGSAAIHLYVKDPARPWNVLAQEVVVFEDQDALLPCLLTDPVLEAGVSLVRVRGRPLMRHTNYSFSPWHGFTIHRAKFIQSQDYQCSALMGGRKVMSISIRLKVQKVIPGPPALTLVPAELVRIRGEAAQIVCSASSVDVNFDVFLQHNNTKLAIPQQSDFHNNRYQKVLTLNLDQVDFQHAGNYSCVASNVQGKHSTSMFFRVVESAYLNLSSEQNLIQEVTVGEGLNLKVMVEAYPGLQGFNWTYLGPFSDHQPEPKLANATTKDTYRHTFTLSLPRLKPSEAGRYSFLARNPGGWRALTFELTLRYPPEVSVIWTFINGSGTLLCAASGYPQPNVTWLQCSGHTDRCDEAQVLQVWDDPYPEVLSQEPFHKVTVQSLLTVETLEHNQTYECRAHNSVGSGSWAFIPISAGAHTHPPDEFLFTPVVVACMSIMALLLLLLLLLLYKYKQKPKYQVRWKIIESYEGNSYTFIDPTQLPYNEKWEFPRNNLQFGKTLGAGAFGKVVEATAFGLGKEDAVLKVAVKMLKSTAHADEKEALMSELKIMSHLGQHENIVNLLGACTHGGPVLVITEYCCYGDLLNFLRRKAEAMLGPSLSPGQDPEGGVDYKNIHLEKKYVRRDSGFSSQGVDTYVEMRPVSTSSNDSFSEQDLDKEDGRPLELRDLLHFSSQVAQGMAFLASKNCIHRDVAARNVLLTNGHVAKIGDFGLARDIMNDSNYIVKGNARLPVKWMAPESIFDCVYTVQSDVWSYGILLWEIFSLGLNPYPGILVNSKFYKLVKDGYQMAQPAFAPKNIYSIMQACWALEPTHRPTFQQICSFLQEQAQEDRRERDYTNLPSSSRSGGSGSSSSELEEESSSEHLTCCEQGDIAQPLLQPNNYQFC
Sequence of High affinity nerve growth factor receptor (P04629 whole entry): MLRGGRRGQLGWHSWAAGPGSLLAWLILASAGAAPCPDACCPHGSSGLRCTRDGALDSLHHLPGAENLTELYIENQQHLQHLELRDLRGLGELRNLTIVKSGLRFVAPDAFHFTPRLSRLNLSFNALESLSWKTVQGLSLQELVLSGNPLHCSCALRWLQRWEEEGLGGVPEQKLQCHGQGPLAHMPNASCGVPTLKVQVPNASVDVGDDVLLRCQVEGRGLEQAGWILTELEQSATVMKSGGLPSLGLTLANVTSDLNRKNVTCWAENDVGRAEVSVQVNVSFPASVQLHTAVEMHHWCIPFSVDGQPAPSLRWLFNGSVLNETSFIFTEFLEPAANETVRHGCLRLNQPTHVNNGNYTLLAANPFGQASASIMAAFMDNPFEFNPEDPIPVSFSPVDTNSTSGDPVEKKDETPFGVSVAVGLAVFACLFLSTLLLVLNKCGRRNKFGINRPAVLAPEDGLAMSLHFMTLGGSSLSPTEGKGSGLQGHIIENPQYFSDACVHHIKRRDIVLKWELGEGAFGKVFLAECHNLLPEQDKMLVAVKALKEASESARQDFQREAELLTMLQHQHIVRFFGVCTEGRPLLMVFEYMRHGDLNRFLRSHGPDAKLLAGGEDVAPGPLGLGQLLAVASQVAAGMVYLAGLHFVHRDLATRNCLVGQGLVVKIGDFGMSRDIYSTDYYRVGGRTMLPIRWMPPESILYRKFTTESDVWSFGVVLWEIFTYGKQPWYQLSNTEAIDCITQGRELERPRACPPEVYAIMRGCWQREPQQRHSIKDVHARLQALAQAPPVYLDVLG

SMILES: CC1CCN(c2cc(N3CCN(C)CC3)cnc2NC(=O)c2ccc(C#N)o2)CC1
- IC50 [1]: 720 nM

SMILES: CC1CCN(c2cc(N3CCN(C)CC3)ccc2NC(=O)c2ccc(C#N)o2)CC1
- half-life [2]: 1.63 h
- bioavailability [3]: 39%
- Vd [4]: 11.4 L/kg
- Cmax [5]: 454 ng/mL
- IC50 (Macrophage): 2 nM

SMILES: CN1CCN(c2ccc(NC(=O)c3ccc(C#N)o3)c(N3CCCC(F)C3)c2)CC1 (configuration not stated)
- IC50 [1]: 6.3 nM

SMILES: CN1CCN(c2ccc(NC(=O)c3ccc(C#N)o3)c(N3CCCCC3=O)c2)CC1
- IC50 [1]: > 60 nM
- IC50 (Macrophage): > 10000 nM

SMILES: N#Cc1ccc(C(=O)Nc2ccc(N3CCS(=O)(=O)CC3)cc2N2CCCCC2)o1
- IC50 [1]: 0.7 nM

SMILES: CN1CCN(c2ccc(NC(=O)c3ccc(C#N)o3)c(N3CCOCC3)c2)CC1
- IC50 [1]: 80 nM
- IC50 (Macrophage): 2800 nM

SMILES: CC1CCN(c2nc(N3CCN(C)CC3)ccc2NC(=O)c2ccc(C#N)o2)CC1
- IC50 [1]: 10 nM

SMILES: Cc1cnn(-c2ccc(NC(=O)c3ccc(C#N)o3)c(N3CCCCC3)c2)c1
- IC50 [1]: 64 nM

SMILES: N#Cc1ccc(C(=O)Nc2ccc(-n3ccnc3)cc2N2CCCCC2)o1
- IC50 [1]: 3 nM

SMILES: CCOc1ccc(NC(=O)c2ccc(C#N)o2)c(N2CCCCC2)c1
- IC50 [1]: 21 nM

SMILES: CC1CCN(c2cc(N3CCOCC3)ccc2NC(=O)c2ccc(C#N)o2)CC1
- IC50 [1]: 11 nM

SMILES: CN1CCN(C(=O)N(C)c2ccc(NC(=O)c3ccc(C#N)o3)c(N3CCCCC3)c2)CC1
- IC50 [1]: 83 nM

SMILES: CC1CCN(c2cc(N3CCN(C)CC3)ccc2NC(=O)c2cc(C#N)c[nH]2)CC1
- half-life [2]: 4.07 h
- IC50 [6]: 11 nM
- Activity (Mus musculus [7]): 80%
- bioavailability [3]: 45%
- Vd [4]: 5.63 L/kg
- Activity (Mus musculus [8]): 35%
- Activity (Mus musculus [9]): 80%
- Activity (Mus musculus [10]): 65%
- Cmax [5]: 853 ng/mL
- IC50 [11]: 3.5 nM

SMILES: CC1CCN(c2cc(N3CCNCC3)ccc2NC(=O)c2cc(C#N)c[nH]2)CC1
- IC50 [1]: 1 nM

SMILES: CC(=O)N1CCN(c2ccc(NC(=O)c3cc(C#N)c[nH]3)c(N3CCC(C)CC3)c2)CC1
- IC50 [1]: 0.7 nM

SMILES: CC1CCN(c2cc(N3CCN(S(C)(=O)=O)CC3)ccc2NC(=O)c2ccc(C#N)o2)CC1
- IC50 [1]: 0.9 nM

SMILES: N#Cc1ccc(C(=O)Nc2ccc(N3CCCCC3)cc2N2CCCCC2)o1
- IC50 [1]: 17 nM

SMILES: CCN(C)CCCc1ccc(NC(=O)c2ccc(C#N)o2)c(N2CCCCC2)c1
- IC50 [1]: 52 nM

SMILES: CN1CCN(c2ccc(NC(=O)c3ccc(C#N)o3)c(N3CCCCC3)c2)CC1
- half-life [2]: 1.03 h
- bioavailability [3]: 32%
- Vd [4]: 7.97 L/kg
- Cmax [5]: 386 ng/mL
- IC50 (Macrophage): 5 nM

SMILES: CN1CCN(c2ccc(NC(=O)c3cc(C#N)c[nH]3)c(N3CCCCC3)c2)CC1
- IC50 (Macrophage): 2 nM

SMILES: CN(c1ccc(NC(=O)c2ccc(C#N)o2)c(N2CCCCC2)c1)S(C)(=O)=O
- IC50 [1]: 25 nM

SMILES: CS(=O)(=O)Nc1ccc(NC(=O)c2ccc(C#N)o2)c(N2CCCCC2)c1
- IC50 [1]: 71 nM

SMILES: N#Cc1ccc(C(=O)Nc2ccc(F)cc2N2CCCCC2)o1
- IC50 [1]: 63 nM
